Source: patent US9670217B2, “Process for preparing chlorins and their pharmaceutical uses” (UNIVERSIDADE DE COIMBRA, priority 2008, dated 2017)
Like-named read-outs stand apart in the source and are kept apart here. Values belong to the compound of their own block, whether it stands above or below them.

Key:
[1] = Photobleaching under 748 nm diode laser irradiation; format: physicochemical; conditions: 100 mW laser irradiation at 748 nm
Text: The irradiation of bacteriochlorins in the photobleaching experiments employed the 748 nm Lynx diode laser. For animal studies we employed a costumer-made Hamamatsu diode laser, type LA0873. S/N M070301, which delivered 140 mW at 748 nm. This diode laser was controlled by a ThorLabs 500 mA ACC/APC Laser Diode Controller and in-house electronics. The laser energies of this and the other higher-energy lasers employed in this work were regularly checked with an Ophir model AN/2E laser power meter.
Photobleaching experiments were conducted in PBS. PBS:methanol (50:50) and methanol solutions. The solutions were irradiated in a cuvette with an optical path of 1 cm and the Lynx diode laser. The initial absorption of the solutions was ca. 0.8. The mechanism of photobleaching was assessed with the irradiation of the sensitizer using the Hamamatsu diode laser at 80 mW. The sensitizer was irradiated in PBS and in the presence of ascorbic acid or azide.
The chemical stability of the compounds was studied exposing them to light, air, and pH changes. The most significant degradation occurs for aerated solutions irradiated by light of the appropriate wavelength. In such circumstances the photobleaching of the compounds follows a first-order rate and is proportional to the energy of the incident laser light. In general, it was also observed that the photobleaching rate increases with the amount of water present in the solution. Bennett reported the photoconversion of Foscan® (m-THPC) and of the analogous bacteriochlorin (m-THPB) in PBS:methanol (50:50). Scherz reported the photoconversion of Tookad® in acetone and Triton-X:PBS [3]. For the purpose of comparing the photostability of Luzitins with that of Foscan® and Tookad®, we present in Table 2 the half-lives (t1/2) of representative drugs described herein, together with those of Foscan and Tookad® normalized for a laser power of 100 mW.
Luzitin-FMet was dissolved in PBS:methanol (2:3), transferred to a 1 cm quartz cell and its absorption spectrum was registered, FIG. 6. The quartz cell was then placed in the beam of the 748 nm Lynx diode laser, previously unfocused to have a beam diameter coincident with the window of the quartz cell. The laser power measured under these conditions was 28.8 mW. Every 5 minutes the irradiation was interrupted and a new absorption spectrum was registered. This procedure was followed for 65 minutes. The photobleaching follows the kinetics of a first-order reaction in the time window of the experiment. […] Whereas the bacteriochlorin peak at 743 nm is reduced from an absorbance of 1.128 to 0.337, the absorption of the chlorin only increases from 0.114 to 0.151. Taking into consideration the molar absorption coefficients of the compounds at these wavelengths, it is clear that whereas 70% of the bacteriochlorin is destroyed during the irradiation, only a few percent of chlorin are formed.
The half-lives of other bacteriochlorins normalized 100 mW laser irradiation at 748 nm are presented in […], together with the literature data for the photodegradation of Foscan® and Tookad® normalized for the same light intensity. It was also observed that the half-live to Luzitin-Cl is increased by a factor of 30 when the PBS solution of the photosensitizer is saturated with Argon, which reduces the oxygen concentration in the solution.

[2] = Fluorescence quantum yield; format: physicochemical; conditions: ethanol
Method: The absorptions of both reference and sample solutions were matched at ca 0.2 at the excitation wavelength of 515.5 nm, and the solutions were diluted by a factor 10 before collecting the fluorescence. The fluorescence quantum yield was obtained from the ratio of the fluorescence bands of the sample vs the reference, multiplied by the fluorescence quantum yield of the reference, 0.012 according to [12], after correction for the difference of refractive indexes of ethanol and toluene.
(§1) This is indicative of little aggregation between the molecules, which exist mostly as monomers at these concentrations in the solvents studied. Table 1 presents typical red and infrared molar absorption coefficients (εmax) and wavelength maxima. The same table also presents representative fluorescence quantum yields (ΦF) of Luzitins. The fluorescence quantum yields decrease of these molecules decrease in the presence of chlorine substituents, a fingerprint of the heavy atom effect expected for such molecules.

[3] = n-octanol:water partition coefficient (shake-flask); format: physicochemical
Method: The n-octanol:water partition coefficients (CP) were measured using a minor modification of the shake-flask method described by some of us in the literature. The modification concerned the excitation of the absorption band ca 500 nm and the collection of the fluorescence in the red/IR region.

[4] = Absorption spectra (λmax, molar absorption coefficient); format: physicochemical; conditions: ethanol solutions
Method: (§2) Absorption spectra were recorded on a Shimadzu UV-2100 spectrophotometer or with a Carry 50 Biospectrophotometer (Varian, Mulgrave, USA). Fluorescence spectra were measured with a Spex Fluorolog 3 spectrophotometer, with correction for the wavelength dependence system (RCA C31034 photomultiplier), or with a PerkinElmer LS 50 spectrofluorimeter. Transient absorption spectra were measured with an Applied Photophysics LKS 60 nanosecond laser flash photolysis kinetic spectrometer, using the third harmonic of a Spectra-Physics Quanta Ray GCR 130-01 Nd/YAG laser for excitation, a Hamamatsu 1P28 photomultiplier and a Hewlett-Packard Infinium oscilloscope (1 GS/s). Flash photolysis measurements were made in the presence of air and in argon saturated solutions. Photoacoustic calorimetry employed the same Nd/YAG laser, a home-made front-face photoacoustic cell with a 2.25 MHz Panametrics transducer (model 5676) and a Tektronix DSA 601 transient recorder. Room-temperature singlet-oxygen phosphorescence was measured at 1270 nm with a Hamamatsu R5509-42 photomultiplier, cooled to 193 K in a liquid nitrogen chamber (Products for Research model PC176TSCE005), following laser excitation of aerated solutions at 355 nm, using an adapted Applied Photophysics spectrometer. Singlet oxygen emission at 1270 nm was also monitored with a liquid nitrogen-cooled germanium detector (North Coast) coupled to a Tectronix Digitizing scope (TDS 520B), following sample excitation with 5 ns laser pulses of the third harmonic (355 nm) generated by a Q-switched Nd:YAG laser (Continuum Surelite II).
as §1

[5] = Singlet oxygen quantum yield and lifetime (1270 nm phosphorescence); format: physicochemical; conditions: air-saturated ethanol
Method: as §2
Singlet oxygen quantum yields in ethanol were obtained using a procedure described by some of us, using phenalenone as reference. The literature value for the singlet oxygen quantum yield obtained with phenalenone in ethanol is ΦΔ=0.95 [38].
All the singlet oxygen emissions measured in aerated ethanol solutions are very well described by mono-exponential decays, with typical singlet oxygen lifetimes (τΔ). The ΦΔ values of Table 1 were obtained by the procedures described above and are representative of these photosensitisers.
An air-saturated solution of Luzitin-Cl2Hep in ethanol with an absorbance ca. 0.2 at 355 nm was excited in a 1 cm quartz cuvette by a pulsed Nd:YAG laser, and the singlet oxygen emission was followed at 1270 nm, using the equipment and methods previously described. The intensity of the singlet oxygen phosphorescence was studied as a function of the laser intensity. A similar study was made with phenalenone in ethanol, at a concentration matching the absorbance of Luzitin-Cl2Hep at 355 nm. […] Various laser energies were employed and from the slopes of the energy dependence of singlet oxygen emission and the value of ΦΔ=0.95 for phenalenone in this ethanol, we obtained ΦΔ=0.78 for Luzitin-Cl2Hep.

[6] = Triplet lifetime by laser flash photolysis; format: physicochemical; conditions: air-saturated ethanol
Method: as §2
The triplet-triplet absorption spectra and the triplet lifetimes of the photosensitisers (τT) were measured with the transient absorption spectra equipment described above, with excitation at 355 nm, where the solutions had absorbances between 0.25 and 0.30.
The triplet-triplet absorption spectra of the Luzitins measured in this work were in good agreement with that in the literature data for chlorins and bacteriochlorins. All triplet decays were clearly mono-exponential. […] Such values are consistent with diffusion limited energy transfer from the triplet state of the sensitizer to molecular oxygen through a charge-transfer interaction.

[7] = reference, in ethanol [38]; cited from earlier work
[8] = cited from earlier work
[9] = system: human adenocarcinoma (HT29) cell line; conditions: HT29, irradiation of 25 J/cm^2 (US2003/6,569,846); read-out: dose causing 50% death rate; cited from earlier work
[10] = in toluene [12]; cited from earlier work

t1/2 (photobleaching half-life) ([1]; methanol): 4,352 sec
ΦF (fluorescence quantum yield) [2]: 0.0585
log KOW (n-octanol:water partition coefficient) [3]: >4
λmax [4]: 742.5 nm
εmax ([4]; corrected for the chlorin content): 78,000^d) M^−1 cm^−1
Compound: CN(C)S(=O)(=O)c1ccc(F)c(-c2c3nc(c(-c4cc(S(=O)(=O)N(C)C)ccc4F)c4ccc([nH]4)c(-c4cc(S(=O)(=O)N(C)C)ccc4F)c4nc(c(-c5cc(S(=O)(=O)N(C)C)ccc5F)c5ccc2[nH]5)CC4)CC3)c1 [Luzitin-FMet2, 5,10,15,20-tetrakis(2-fluoro-5-N,N-dimethysulfamoylphenyl)bacteriochlorin]

t1/2 (photobleaching half-life) ([1]; methanol): 164,105 sec
τΔ (singlet oxygen lifetime) [5]: 14.3 μsec
ΦΔ (singlet oxygen quantum yield) ([5]; phenalenone as reference): 0.63
τT (air) triplet lifetime [6]: 295 nsec
ΦF (fluorescence quantum yield) [2]: 0.0082
log KOW (n-octanol:water partition coefficient) [3]: >4
εmax [4]: 75,000 M^−1 cm^−1
λmax [4]: 746 nm
Compound: CCCCCCCNS(=O)(=O)c1ccc(Cl)c(-c2c3nc(c(-c4c(Cl)ccc(S(=O)(=O)NCCCCCCC)c4Cl)c4ccc([nH]4)c(-c4c(Cl)ccc(S(=O)(=O)NCCCCCCC)c4Cl)c4nc(c(-c5c(Cl)ccc(S(=O)(=O)NCCCCCCC)c5Cl)c5ccc2[nH]5)CC4)CC3)c1Cl [Luzitin-Cl2Hep, 5,10,15,20-tetrakis(2,6-dichloro-3-N-heptylsulfamoylphenyl)bacteriochlorin]

Compound: O=C1C=Cc2cccc3cccc1c23 [phenalenone]
ΦΔ (singlet oxygen quantum yield) [7]: 0.95

Compound: Oc1cccc(-c2c3nc(c(-c4cccc(O)c4)c4ccc([nH]4)c(-c4cccc(O)c4)c4nc(c(-c5cccc(O)c5)c5ccc2[nH]5)CC4)C=C3)c1 [Foscan®, 5,10,15,20-tetrakis(3-hydroxyphenyl)chlorin]
t1/2 (half-life) ([8]; PBS:methanol, literature [46] normalized for a laser power of 100 mW): 8,582 sec

Compound: CC[C@H]1c2cc3[n-]c4c(c3C)C(=O)[C@H](C(=O)OC)c4c3nc(cc4[n-]c(cc(n2)[C@@H]1C)c(C(C)=O)c4C)[C@@H](C)[C@@H]3CCC(=O)O.[Pd+2] [Tookad®]
IC50 [9]: 48 µM
t1/2 (half-life) ([8]; buffer): 1.56 s

Compound: Clc1cccc(Cl)c1-c1c2nc(c(-c3c(Cl)cccc3Cl)c3ccc([nH]3)c(-c3c(Cl)cccc3Cl)c3nc(c(-c4c(Cl)cccc4Cl)c4ccc1[nH]4)CC3)CC2 [Cl2PhB, 5,10,15,20-tetrakis(2,6-dichlorophenyl)bacteriochlorin]
fluorescence quantum yield of the reference [10]: 0.012

t1/2 (photobleaching half-life) ([1]; PBS): 58 s
Compound: O=S(=O)(O)c1ccc(F)c(-c2c3nc(c(-c4cc(S(=O)(=O)O)ccc4F)c4ccc([nH]4)c(-c4cc(S(=O)(=O)O)ccc4F)c4nc(c(-c5cc(S(=O)(=O)O)ccc5F)c5ccc2[nH]5)CC4)CC3)c1 [Luzitin-F, 5,10,15,20-tetrakis(2-fluoro-5-sulfonylphenyl)bacteriochlorin]
